Measurements from patent US20190084939A1, “ANALOGS OF FEXARAMINE AND METHODS OF MAKING AND USING” (Salk Institute for Biological Studies, priority 2014, published 2019).
“Also recorded” adds a separate entry of the source.

Columns and labels:
ApcMin/+ mice = assay: ApcMin/+ colon cancer mouse model; type: in vivo
Experimental: The farnesoid X receptor (FXR) is a bile acid activated nuclear receptor widely expressed through the body. The ability of the intestinal-specific FXR ligand fexaramine to inhibit the progression of colon cancer in mice with a heterozygote mutation for the Apc gene (ApcMin/+ mice on a C57B6 background obtained from Jackson Laboratories) was determined.
5 week old ApcMin/+ mice (13-15 males per group receiving a standard diet, a model for colorectal and intestinal cancer) were treated with vehicle (corn oil) or fexaramine (FEX, 100 mg/kg in corn oil) by oral gavage, three times a week for 23 weeks. Mice body weight and food-intake were measured daily. At the end of the treatment regimen, surviving animals were sacrificed by cervical dislocation and the entire intestinal tract was immediately removed and washed with cold phosphate-buffered saline.
At the completion of the treatment, the colons were removed, flushed with PBS, fixed as “Swiss-rolls” in 4% paraformaldehyde at 4° C. overnight, and paraffin-embedded. Sections (5 μm) were cut stepwise (200 μm) through the complete block and stained with H&E. Tumor counts were performed blinded by a trained pathologist. To determine proliferation rates, mice were injected i.p. with 100 mg/kg of BrdU 2.5 hours prior to sacrifice and paraffin sections stained using a BrdU-in situ detection kit. The extent of apoptosis was determined by TUNEL assay using the ApoAlert DNA fragmentation assay kit. BrdU- and TUNEL-positive cells were counted by an investigator blinded to the genotype. For immunohistochemistry, antigen retrieval was performed (Vector Lab H3300) and then RTU Vectastain Universal Elite ABC Kit and NovaRED or VIP substrate (all from Vector Lab) were used, following the manufacturer's instructions.
Statistical analysis were performed in collaboration with the Cancer Prevention-Biostatistics department at the University of California at San Diego Cancer Center. This is part of an ongoing collaboration and has previously been applied to the APC^Min model of colorectal cancer as well as to several other cancer models including prostate and breast cancer. The volume of polyps was calculated considering them as hemispheres (½×[…] π r^3). All other evaluations were performed in the distal tract of the small intestine because ApcMin/+ mice develop the majority of tumors in the small intestine.

FXR-null mice = assay: chronic PO fexaramine in HFD fed FXR-null mice; type: in vivo; settings: 100 mg/kg 5 week with HFD
Experimental: Data represent the mean±SD. Statistical analysis was performed with the Student's t test. *p<0.05, **p<0.01.
Therefore, glucose tolerance tests (GTTs) and insulin tolerance tests (ITTs) were performed to determine if glucose homeostasis was improved in fexaramine-treated DIO mice.

human L cells = assay: oxygen consumption rate of intestinal L cells (Seahorse analyzer); type: cell-based; settings: fexaramine 1 μM for 24 hours
Experimental: FIG. 41 is a graph showing the effects of modulating FXR activity on the oxidative metabolism of intestinal L cells. L cells were treated with the FXR agonist fexaramine, the FXR antagonist Guggulsterone, or a combination of both, prior to measurement of their oxygen consumption rate (OCR) in a Seahorse analyzer.
To examine the effects of FXR in the secretion of GLP-1, the metabolic changes induced in human L cells was measured by treatment with the FXR agonist, fexaramine and an FXR antagonist guggulsterone. Treatment of L cells with fexaramine (1 μM for 24 hours) lead to an increase in the oxygen consumption rate (OCR), consistent with increased mitochondrial activity and consequently, an increased energetic state (FIG. 41). The reverse effect was seen after treatment with the FXR antagonist, guggulsterone, with lower OCR after drug treatment.

TGR5 null mice = assay: chronic PO fexaramine in HFD-fed TGR5-null mice; type: in vivo; settings: 100 mg/kg/day PO 5 weeks
Experimental: HFD-fed TGR5-null mice were treated with vehicle or fexaramine (100 mg/kg os daily for 5 weeks with HFD, n=10). (A) Ileal FXR target gene expressions (B) Serum BA levels (C) Fasting glucose levels (D) Glucose tolerance test (E) Core body temperature (F) Oxygen consumption rate (G) Carbon dioxide production (H) Gene expression in BAT (I) Body weight curve (J) Body composition by MRI (K) Insulin Tolerance Test (L) Hepatic gene expression (M) Hepatic TG levels (N) and Gene expression in soleus of TGR5 knockout mice with and without fexaramine treatment. Data represent the mean±SD. Statistical analysis was performed with the Student's t test. *p<0.05, **p<0.01.
To address this possibility, HFD-fed TGR5 null mice were chronically treated with Fex (100 mg/kg/day PO for 5 weeks). […] In particular, the anti-lipogenic effects of Fex in the liver appear to require TGR5 activation, as key hepatic lipogenic genes and liver triglyceride content were not affected by Fex treatment (FIGS. 11L, 11M).

[1] = tested on: pancreatic islets gene expression; assay: RNA-Seq of pancreatic islets of treated ob/ob mice; type: in vivo; settings: fexaramine 100 mg/kg 5 weeks, analogs 50 mg/kg 2 weeks
Experimental: Pancreatic islets were isolated from ob/ob mice after daily treatment by oral gavage with fexaramine (100 mg/kg for 5 weeks), FEX-D (50 mg/kg for 2 weeks) or SALK110 (NSSK00110, 50 mg/kg for 2 weeks). Changes in gene expression were determined by RNA-Seq.

human TGR5 = molecular target: T1, human TGR5 (Homo sapiens, UniProt Q8TDU6); assay: TGR5 activation, cAMP-response element luciferase in HEK293 cells; type: cell-based; settings: 24 hours after transfection
T1 construct: expressed in transfected cells; host or cells: HEK293 cells
T1 sequence (Q8TDU6 1-330): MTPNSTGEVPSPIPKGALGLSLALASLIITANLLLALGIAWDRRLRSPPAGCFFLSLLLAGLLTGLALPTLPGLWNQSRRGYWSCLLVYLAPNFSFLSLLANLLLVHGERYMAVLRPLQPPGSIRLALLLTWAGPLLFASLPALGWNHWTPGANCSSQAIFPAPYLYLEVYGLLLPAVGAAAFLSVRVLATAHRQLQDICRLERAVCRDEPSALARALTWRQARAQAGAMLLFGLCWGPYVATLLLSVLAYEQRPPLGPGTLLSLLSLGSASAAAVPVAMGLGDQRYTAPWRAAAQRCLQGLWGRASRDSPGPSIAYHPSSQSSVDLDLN
Experimental: HEK293 cells were transfected with expression vectors for cAMP-response element luciferase, β-galactosidase and human TGR5. 24 hours after transfection, cells were treated with fexaramine or INT-777 (a TGR5 agonist).

**Q.** What does the source list for COC(=O)/C=C/c1cccc(N(Cc2ccc(-c3ccc(N(C)C)cc3)cc2)C(=O)C2CCCCC2)c1 [Fexaramine, fexaramine]?
**A.** colon cancer-induced cachexia (weight loss) (ApcMin/+ mice; 100 mg/kg oral gavage three times a week): resistant to colon cancer-induced cachexia; serum total cholesterol and triglyceride levels (ApcMin/+ mice; after 23 weeks): reduces circulating triglycerides; also recorded: reduced; tumor size in duodenum, jejunum, ileum and throughout the intestine (ApcMin/+ mice; after 23 weeks): dramatic reduction in tumor size; tumors in colon sections (ApcMin/+ mice; after 23 weeks): No tumors were observed; reduction in total tumor burden versus vehicle (ApcMin/+ mice; after 23 weeks, p 0.04): 20%; reduction in tumor burden in the ileum (ApcMin/+ mice; after 23 weeks, p 0.08): 25%; reduction in tumor burden in the jejunum (ApcMin/+ mice; after 23 weeks, p 0.08): 11.75%; tumor burden in the duodenum (ApcMin/+ mice; after 23 weeks, p 0.73): no change in tumor burden; survival at 25 weeks (ApcMin/+ mice; vehicle 20%): 80%; body weight change (ApcMin/+ mice; vehicle-treated mice lose ˜10%): maintain their weight; Fex-induced changes in gene expression and metabolic homeostasis (FXR-null mice): abrogated; oxygen consumption rate (OCR) (human L cells): increase; FXR target genes in the ileum incl. FGF15 (TGR5 null mice): induced; core body temperature and metabolic rate (TGR5 null mice): somewhat blunted increases; fasting glucose levels and glucose tolerance (TGR5 null mice): moderate improvements; hepatic lipogenic genes and liver triglyceride content (TGR5 null mice): not affected; serum BA levels (TGR5 null mice): lowered; weight gain or insulin sensitivity (TGR5 null mice): no significant changes; gene induction in islets (intracellular signaling, insulin secretion, exocytosis) [1]: induce a common set of genes; activation of TGR5 (human TGR5): fails to activate TGR5; activation of TGR5 (human TGR5; listed as Fex): does not activate
